Read-outs that look alike come from different tables or passages of the source.
Legend:
Blumeria graminis = test: In vivo fungicidal activity, Wheat powdery mildew (WPM); also: ranges in brackets are in %
Plasmopara viticola = test: In vivo fungicidal activity, Grape downy mildew (GDM); also: ranges in brackets are in %
Cercospora beticola = test: In vivo fungicidal activity, Sugar Beet Cercospora (SBC); also: ranges in brackets are in %
Alternara solani = test: In vivo fungicidal activity, Tomato early blight (TEB); also: ranges in brackets are in %
Venturia inaequalis = test: In vivo fungicidal activity, Apple Scab (AS); also: ranges in brackets are in %
Botrytis cinera = test: In vivo fungicidal activity, Pepper Botrytis (PB); also: ranges in brackets are in %
[1] = tested on: Pyricularia grisea f. sp. oryzae; assay type: in vivo; conditions: Rice Blast
[2] = tested on: Pseudocercosporella herpotrichoides; test: In vitro fungicidal activity, Cereal eye spot (PSDCHE); assay type: cell-based; design: key: 0: None; 3: slight; 5: moderate; 7: severe; 9: complete; conditions: 3-7 days of incubation
Description: (§1) Test compounds are dissolved in acetone to give concentrations of 25, 10 and 1 ppm and are added to individual cell Walls (24-cell-well plates, Corning), which were previously filled with a suspension of ground plates, Corning), which were previously filled with a suspension of ground fungal mycelium in a chemically defined growth medium. After 3-7 days of incubation, inhibition of […] growth is recorded using the following scale: The data obtained are shown in Table II. [table]

Rhizoctonia solani = test: In vitro fungicidal activity, Rice sheath blight (RHIZSO); assay type: cell-based; design: key: 0: None; 3: slight; 5: moderate; 7: severe; 9: complete; conditions: 3-7 days of incubation
Description: as §1

Pythium ultimum = test: In vitro fungicidal activity, Fruit rot (PYTHUL); assay type: cell-based; design: key: 0: None; 3: slight; 5: moderate; 7: severe; 9: complete; conditions: 3-7 days of incubation
Description: as §1

SMILES | WPM disease control rating (Blumeria graminis; 12.5 ppm spray) | WPM disease control rating (Blumeria graminis; 50 ppm spray) | WPM disease control rating (Blumeria graminis; 200 ppm spray) | GDM disease control rating (Plasmopara viticola; 12.5 ppm spray) | GDM disease control rating (Plasmopara viticola; 50 ppm spray) | GDM disease control rating (Plasmopara viticola; 200 ppm spray) | SBC disease control rating (Cercospora beticola; 12.5 ppm spray) | SBC disease control rating (Cercospora beticola; 50 ppm spray) | TEB disease control rating (Alternara solani; 12.5 ppm spray) | TEB disease control rating (Alternara solani; 50 ppm spray) | TEB disease control rating (Alternara solani; 200 ppm spray) | AS disease control rating (Venturia inaequalis; 12.5 ppm spray) | AS disease control rating (Venturia inaequalis; 50 ppm spray) | AS disease control rating (Venturia inaequalis; 200 ppm spray) | PB disease control rating (Botrytis cinera; 12.5 ppm spray) | PB disease control rating (Botrytis cinera; 50 ppm spray) | PB disease control rating (Botrytis cinera; 200 ppm spray) | RB disease control rating ([1]; 12.5 ppm spray) | RB disease control rating ([1]; 50 ppm spray) | RB disease control rating ([1]; 200 ppm spray) | further results
CCCn1cnn2c(=NC(C)C(F)(F)F)c(-c3c(F)cc(OC)cc3F)c(Cl)nc12 (stereo not drawn) [Example 12] | 0 (0) | 0 (0) | 0 (0) | 0 (0) | 0 (0) | 0 (0) | 0 (0) | 0 (0) | 0 (0) | 0 (0) | 0 (0) | 0 (0) | 0 (0) | 0 (0) | 0 (0) | 0 (0) | 0 (0) | 0 (0) | 0 (0) | 0 (0) | SBC disease control rating (Cercospora beticola; 200 ppm spray): 0 (0)
Cn1c(Cl)c(-c2c(F)cc(F)cc2F)c(=NCC(F)(F)F)n2ncnc12 [Example 1A, N-(5-chloro-4-methyl-6-(2,4,6-trifluorophenyl)-4H[1,2,4]triazolo[1,5-α]pyrimidin-7-ylidene]-N-(2,2,2-trifluoroethyl)-amine] | 0 (0) | 7 (90-95) | 8 (96-99) | 5 (60-74) | 6 (75-89) | 4 (45-59) | 0 (0) | 6 (75-89) | 0 (0) | 0 (0) | 3 (30-44) | 0 (0) | 6 (75-89) | 9 (100) | 0 (0) | 5 (60-74) | 0 (0) | 0 (0) | 0 (0) | 6 (75-89) | PSDCH inhibition of mycelial growth rating ([2]; 1 ppm): 0; PSDCH inhibition of mycelial growth rating ([2]; 10 ppm): 0; PSDCH inhibition of mycelial growth rating ([2]; 25 ppm): 0; RHIZSO inhibition of mycelial growth rating (Rhizoctonia solani; 1 ppm): 5; RHIZSO inhibition of mycelial growth rating (Rhizoctonia solani; 10 ppm): 7; RHIZSO inhibition of mycelial growth rating (Rhizoctonia solani; 25 ppm): 7; SBC disease control rating (Cercospora beticola; 200 ppm spray): 8 (96-99); PYTHU inhibition of mycelial growth rating (Pythium ultimum; 1 ppm): 0; PYTHU inhibition of mycelial growth rating (Pythium ultimum; 10 ppm): 0; PYTHU inhibition of mycelial growth rating (Pythium ultimum; 25 ppm): 0
CCCn1c(Cl)c(-c2c(F)cc(OC)cc2F)c(=NC(C)C(F)(F)F)n2ncnc12 (stereo not drawn) [Example 4] | 0 (0) | 0 (0) |  | 0 (0) | 0 (0) |  | 0 (0) | 0 (0) | 0 (0) | 0 (0) |  | 0 (0) | 0 (0) |  | 0 (0) | 0 (0) |  | 0 (0) | 0 (0) |  | WPM disease control rating (Blumeria graminis; 3.1 ppm spray): 0 (0); GDM disease control rating (Plasmopara viticola; 3.1 ppm spray): 4 (45-59); SBC disease control rating (Cercospora beticola; 3.1 ppm spray): 0 (0); TEB disease control rating (Alternara solani; 3.1 ppm spray): 3 (30-44); AS disease control rating (Venturia inaequalis; 3.1 ppm spray): 0 (0); PB disease control rating (Botrytis cinera; 3.1 ppm spray): 0 (0); RB disease control rating ([1]; 3.1 ppm spray): 0 (0)
Cn1c(Cl)c(-c2c(F)cc(F)cc2F)c(=NCC(F)(F)F)n2ncnc12 [Example 8] | 2 (15-29) | 4 (45-59) | 7 (90-95) | 5 (60-74) | 4 (45-59) | 5 (60-74) |  |  | 2 (15-29) | 0 (0) | 0 (0) | 0 (0) | 0 (0) | 5 (60-74) | 0 (0) | 0 (0) | 0 (0) | 0 (0) | 0 (0) | 4 (45-59) | PSDCH inhibition of mycelial growth rating ([2]; 1 ppm): 0; PSDCH inhibition of mycelial growth rating ([2]; 10 ppm): 0; PSDCH inhibition of mycelial growth rating ([2]; 25 ppm): 0; RHIZSO inhibition of mycelial growth rating (Rhizoctonia solani; 1 ppm): 7; RHIZSO inhibition of mycelial growth rating (Rhizoctonia solani; 10 ppm): 7; RHIZSO inhibition of mycelial growth rating (Rhizoctonia solani; 25 ppm): 7; PYTHU inhibition of mycelial growth rating (Pythium ultimum; 1 ppm): 0; PYTHU inhibition of mycelial growth rating (Pythium ultimum; 10 ppm): 0; PYTHU inhibition of mycelial growth rating (Pythium ultimum; 25 ppm): 0
Cn1c(Cl)c(-c2c(F)cc(F)cc2F)c(=NCC(F)(F)F)n2ncnc12 [Example 17] | 0 (0) | 2 (15-29) | 6 (75-89) | 0 (0) | 0 (0) | 5 (60-74) |  |  | 0 (0) | 0 (0) | 0 (0) | 0 (0) | 2 (15-29) | 6 (75-89) | 0 (0) | 0 (0) | 0 (0) | 0 (0) | 3 (30-44) | 4 (45-59) | PSDCH inhibition of mycelial growth rating ([2]; 1 ppm): 0; PSDCH inhibition of mycelial growth rating ([2]; 10 ppm): 1; PSDCH inhibition of mycelial growth rating ([2]; 25 ppm): 3; RHIZSO inhibition of mycelial growth rating (Rhizoctonia solani; 1 ppm): 7; RHIZSO inhibition of mycelial growth rating (Rhizoctonia solani; 10 ppm): 7; RHIZSO inhibition of mycelial growth rating (Rhizoctonia solani; 25 ppm): 7; PYTHU inhibition of mycelial growth rating (Pythium ultimum; 1 ppm): 0; PYTHU inhibition of mycelial growth rating (Pythium ultimum; 10 ppm): 5; PYTHU inhibition of mycelial growth rating (Pythium ultimum; 25 ppm): 7
CCCn1c(Cl)c(-c2c(F)cc(F)cc2F)c(=NC(C)C(F)(F)F)n2ncnc12 (stereo not drawn) [Example 2] | 0 (0) | 0 (0) | 0 (0) | 4 (45-59) | 2 (15-29) | 1 (1-14) | 0 (0) | 0 (0) | 0 (0) | 0 (0) | 0 (0) | 0 (0) | 0 (0) | 5 (60-74) | 1 (1-14) | 1 (1-14) | 1 (1-14) | 0 (0) | 0 (0) | 0 (0) | SBC disease control rating (Cercospora beticola; 200 ppm spray): 3 (30-44)
